Patent US20030045501A1, “Use of atazanavir in HIV therapy” (priority 2001, published 2003)

Experiments:
[1] = saquinavir dosed at 1200 mg TID; at steady-state; cited from earlier work
HIV [2] = assay: Phase II randomized study atazanavir vs nelfinavir: anti-HIV activity (viral load); format: in vivo; conditions: atazanavir 200, 400 or 500 mg once daily, monotherapy two weeks then with stavudine and didanosine; treatment-naive patients
Description: In a Phase II randomized study, the safety and anti-HIV activity of three once daily doses of atazanavir (200 mg, 400 mg and 500 mg) was compared with 750 mg of the protease inhibitor, nelfinavir dosed three times daily. Twenty-one patients received nelfinavir in combination with stavudine and didanosine, while atazanavir was administered both as monotherapy (for two weeks) and then in combination with stavudine and didanosine to 78 treatment-naive (no prior anti-HIV therapy) patients with HIV viral loads >2000 copies per milliliter (c/mL).

[3] = parameters: species or system human; conditions: in vivo
Description: (§1) In another two-stage, randomized three-arm Phase II study, the antiviral activity and metabolic effects of atazanavir at two different doses (400 mg or 600 mg) was compared to ritonavir, each in combination with saquinavir over 48 weeks. The protease inhibitors were administered in combination with two nucleoside reverse transcriptase inhibitors selected from didanosine, stavudine, lamivudine or zidovudine. The selection of reverse transcriptase inhibitors (used in combination as didanosine+stavudine, stavudine+lamivudine, didanosine+zidovudine, or lamivudine+zidovudine) was based on the patient's phenotypic sensitivity and the physician's choice at the time of administration. The regimens were as follows: […]
(§2) atazanavir 400 mg QD+saquinavir 1200 mg QD+2 nucleoside reverse transcriptase inhibitors atazanavir 600 mg QD+saquinavir 1200 mg QD+2 nucleoside reverse transcriptase inhibitors ritonavir 400 mg BID+saquinavir 400 mg BID+2 nucleoside reverse transcriptase inhibitors Patients were anti-retroviral-experienced with a treatment history of receiving a minimum of 24 weeks of a protease inhibitor-containing or non-nucleoside reverse transcriptase inhibitor-containing combination regimen. Stage 1 was to randomize approximately 75 subjects to assess the safety and antiviral activity of the regimens. […]

CYP3A = assay: Inhibition of cytochrome P450 3A enzyme; format: biochemical
Text: Similarly, appropriate dosing of other HIV protease inhibitors to be used in combination with atazanavir can be calculated.

HIV [4] = assay: Phase II three-arm study atazanavir vs ritonavir, each with saquinavir + 2 NRTIs: antiviral activity; format: in vivo; conditions: atazanavir groups vs ritonavir
Description: as §1, §2

[5] = human, in vivo
Text: In clinical studies carried out on 98 HIV-positive patients who have taken atazanavir for one year, no increases in plasma LDL-cholesterol or triglycerides were observed. Thus, atazanavir is particularly useful in the treatment of HIV-positive patients who have elevated plasma LDL-cholesterol and/or triglyceride levels. It can be used as monotherapy or as part of a “cocktail” which would include other antiretroviral drugs such as reverse transcriptase inhibitors, non-nucleoside reverse transcriptase inhibitors, and other HIV protease inhibitors.

Row | LDL-cholesterol elevation over baseline [3] | Ki (CYP3A) [nM] | increases in plasma LDL-cholesterol [5] | increases in plasma triglycerides [5] | SMILES | increase of the exposure of saquinavir [1] [%] | reductions in viral load compared to the nelfinavir-treated patients (HIV [2]) | antiviral efficacy through week 12, compared to ritonavir (HIV [4])
1 | – | – | – | – | Cc1c(O)cccc1C(=O)N[C@@H](CSc1ccccc1)[C@H](O)CN1C[C@H]2CCCC[C@H]2C[C@H]1C(=O)NC(C)(C)C [nelfinavir] | 392 | – | –
2 | not elevated | 2400 | no increases | no increases | COC(=O)N[C@H](C(=O)N[C@@H](Cc1ccccc1)[C@@H](O)CN(Cc1ccc(-c2ccccn2)cc1)NC(=O)[C@@H](NC(=O)OC)C(C)(C)C)C(C)(C)C [atazanavir] | – | at least comparable | similar
